24 compounds from patent publication US20100261723A1, “TRISUBSTITUTED PYRIMIDINE DERIVATIVES FOR THE TREATMENT OF PROLIFERATIVE DISEASES” (ASTRAZENECA AB, priority 2007, published 2010) can be followed below.

This assay concerns the target T1, mTOR kinase (Homo sapiens, UniProt P42345).
T1 construct: FLAG; made in house
The assay can be described thus: In vitro mTOR kinase assay, Test (a)(i) (AlphaScreen). In kind it is biochemical. Conditions: recombinant FLAG-tagged mTOR (1362-2549), ATP 20 μM; read-out: Test (a)(i) IC50. As for the experimental part:
(a)(i) In Vitro mTOR Kinase Assay
A C-terminal truncation of mTOR encompassing amino acid residues 1362 to 2549 of mTOR (EMBL Accession No. L34075) was stably expressed as a FLAG-tagged fusion in HEK293 cells as described by Vilella-Bach et al., […], 1999, 274, 4266-4272. The HEK293 FLAG-tagged mTOR (1362-2549) stable cell line was routinely maintained at 37° C. with 5% CO2 up to a confluency of 70-90% in Dulbecco's modified Eagle's growth medium (DMEM; Invitrogen Limited, Paisley, UK Catalogue No. 41966-029) containing 10% heat-inactivated foetal calf serum (FCS; Sigma, Poole, Dorset, UK, Catalogue No. F0392), 1% L-glutamine (Gibco, Catalogue No. 25030-024) and 2 mg/ml Geneticin (G418 sulfate; Invitrogen Limited, UK Catalogue No. 10131-027). Following expression in the mammalian HEK293 cell line, expressed protein was purified using the FLAG epitope tag using standard purification techniques.
A 30 μl mixture of recombinant purified mTOR enzyme, 1 μM biotinylated peptide substrate (Biotin-Ahx-[…]NH2; Bachem UK Ltd), ATP (20 μM) and a buffer solution [comprising Tris-HCl pH7.4 buffer (50 mM), EGTA (0.1 mM), bovine serum albumin (0.5 mg/mL), DTT (1.25 mM) and manganese chloride (10 mM)] was agitated at room temperature for 90 minutes.
These assay solutions were incubated for 2 hours at room temperature.
Phosphorylated biotinylated peptide is formed in situ as a result of mTOR mediated phosphorylation. The phosphorylated biotinylated peptide that is associated with AlphaScreen Streptavidin donor beads forms a complex with the p70 S6 Kinase (T389) 1A5 Monoclonal Antibody that is associated with Alphascreen Protein A acceptor beads. […] Accordingly, the presence of mTOR kinase activity results in an assay signal. In the presence of an mTOR kinase inhibitor, signal strength is reduced.
Background: Alpha assays give light when donor and acceptor beads are brought close together.

T1 sequence (P42345 1362-2549): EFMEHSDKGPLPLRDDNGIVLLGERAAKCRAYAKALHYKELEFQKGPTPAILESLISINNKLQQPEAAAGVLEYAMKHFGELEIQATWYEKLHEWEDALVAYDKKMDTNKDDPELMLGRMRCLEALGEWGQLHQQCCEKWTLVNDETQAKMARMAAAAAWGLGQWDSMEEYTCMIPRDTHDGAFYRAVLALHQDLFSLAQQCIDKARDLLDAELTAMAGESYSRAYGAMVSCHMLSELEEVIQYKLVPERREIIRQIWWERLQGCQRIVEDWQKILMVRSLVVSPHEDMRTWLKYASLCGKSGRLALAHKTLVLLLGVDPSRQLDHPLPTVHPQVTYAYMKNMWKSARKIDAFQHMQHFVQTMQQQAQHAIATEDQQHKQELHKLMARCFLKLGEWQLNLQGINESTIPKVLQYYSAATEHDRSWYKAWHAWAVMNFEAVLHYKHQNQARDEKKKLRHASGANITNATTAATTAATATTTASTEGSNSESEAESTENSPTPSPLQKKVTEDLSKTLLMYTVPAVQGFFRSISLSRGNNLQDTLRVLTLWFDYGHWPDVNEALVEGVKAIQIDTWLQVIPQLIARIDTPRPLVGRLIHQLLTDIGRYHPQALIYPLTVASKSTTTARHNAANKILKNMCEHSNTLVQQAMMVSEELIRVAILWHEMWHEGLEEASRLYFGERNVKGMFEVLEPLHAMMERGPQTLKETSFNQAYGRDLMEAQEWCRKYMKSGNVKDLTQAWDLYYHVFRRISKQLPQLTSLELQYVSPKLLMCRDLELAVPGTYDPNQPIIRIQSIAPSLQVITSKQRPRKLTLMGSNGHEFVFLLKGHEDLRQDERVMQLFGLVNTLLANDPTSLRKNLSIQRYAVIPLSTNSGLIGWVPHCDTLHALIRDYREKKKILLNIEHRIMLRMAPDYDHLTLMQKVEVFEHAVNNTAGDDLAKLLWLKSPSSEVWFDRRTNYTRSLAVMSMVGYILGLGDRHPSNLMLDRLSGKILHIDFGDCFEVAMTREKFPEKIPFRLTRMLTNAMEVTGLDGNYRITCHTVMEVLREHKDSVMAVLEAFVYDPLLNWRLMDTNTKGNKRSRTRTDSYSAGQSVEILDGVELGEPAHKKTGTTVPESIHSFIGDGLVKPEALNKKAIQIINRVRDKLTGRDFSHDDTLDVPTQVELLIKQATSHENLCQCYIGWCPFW

As a reminder, the IC50 is the concentration needed to halve the response being measured. For the compound `CS(=O)(=O)Cc1cc(N2CCOCC2)nc(-c2ccc(NC(=O)c3c[nH]cn3)cc2)n1` [Example 5f, N-[4-[4-(methylsulfonylmethyl)-6-morpholin-4-yl-pyrimidin-2-yl]phenyl]-1H-imidazole-4-carboxamide], the 50% inhibitory concentration (IC50) came to 966 nM.
The figure for `CC(C)(C(N)=O)C(=O)Nc1ccc(-c2nc(CS(C)(=O)=O)cc(N3CCOCC3)n2)cc1` [Example 5al, 2,2-dimethyl-N′-[4-[4-(methylsulfonylmethyl)-6-morpholin-4-yl-pyrimidin-2-yl]phenyl]propanediamide] is 3960 nM; for `CC(=O)NCCC(=O)Nc1ccc(-c2nc(CS(C)(=O)=O)cc(N3CCOCC3)n2)cc1` [Example 5ad, 3-acetamido-N-[4-[4-(methylsulfonylmethyl)-6-morpholin-4-yl-pyrimidin-2-yl]phenyl]propanamide] it is 3990 nM.
The figure for `CS(=O)(=O)Cc1cc(N2CCOCC2)nc(-c2ccc(NC(=O)C3CCOCC3)cc2)n1` [Example 5ac, N-[4-[4-(methylsulfonylmethyl)-6-morpholin-4-yl-pyrimidin-2-yl]phenyl]oxane-4-carboxamide] is 5380 nM; for `CS(=O)(=O)Cc1cc(N2CCOCC2)nc(-c2ccc(NC(=O)C3(C#N)CC3)cc2)n1` [Example 5at, 1-cyano-N-[4-[4-(methylsulfonylmethyl)-6-morpholin-4-yl-pyrimidin-2-yl]phenyl]cyclopropane-1-carboxamide] it is 1010 nM; for `CS(=O)(=O)Cc1cc(N2CCOCC2)nc(-c2ccc(NC(=O)CCC(F)(F)F)cc2)n1` [Example 5m, 4,4,4-trifluoro-N-[4-[4-(methylsulfonylmethyl)-6-morpholin-4-yl-pyrimidin-2-yl]phenyl]butanamide] it is 1110 nM.
The figure for `CS(=O)(=O)Cc1cc(N2CCOCC2)nc(-c2ccc(NC(=O)c3ccccc3)cc2)n1` [Example 4a, N-[4-[4-(methylsulfonylmethyl)-6-morpholin-4-yl-pyrimidin-2-yl]phenyl]benzamide] is 15300 nM; for `CS(=O)(=O)Cc1cc(N2CCOCC2)nc(-c2ccc(NC(=O)CCc3ccco3)cc2)n1` [Example 5q, 3-(2-furyl)-N-[4-[4-(methylsulfonylmethyl)-6-morpholin-4-yl-pyrimidin-2-yl]phenyl]propanamide] it is 4850 nM; for `CS(=O)(=O)Cc1cc(N2CCOCC2)nc(-c2ccc(NC(=O)CC(F)(F)F)cc2)n1` [Example 5aq, 3,3,3-trifluoro-N-[4-[4-(methylsulfonylmethyl)-6-morpholin-4-yl-pyrimidin-2-yl]phenyl]propanamide] it is 609 nM.
Consider `C[C@H]1COCCN1c1cc(CS(C)(=O)=O)nc(-c2ccc(NC(=O)CO)cc2)n1` [Example 3, 2-Hydroxy-N-[4-[4-[(3S)-3-methylmorpholin-4-yl]-6-(methylsulfonylmethyl)pyrimidin-2-yl]phenyl]acetamide], for which the IC50 was found to be 238 nM.
The figure for `Cc1cc(C(=O)Nc2ccc(-c3nc(CS(C)(=O)=O)cc(N4CCOCC4)n3)cc2)n(C)n1` [Example 5af, 2,5-dimethyl-N-[4-[4-(methylsulfonylmethyl)-6-morpholin-4-yl-pyrimidin-2-yl]phenyl]pyrazole-3-carboxamide] is 10000 nM; for `CS(=O)(=O)Cc1cc(N2CCOCC2)nc(-c2ccc(NC(=O)CN3CCCC3=O)cc2)n1` [Example 5aj, N-[4-[4-(methylsulfonylmethyl)-6-morpholin-4-yl-pyrimidin-2-yl]phenyl]-2-(2-oxopyrrolidin-1-yl)acetamide] it is 9700 nM.
With `CS(=O)(=O)Cc1cc(N2CCOCC2)nc(-c2ccc(NC(=O)CCC3CC3)cc2)n1` [Example 5aa, 3-cyclopropyl-N-[4-[4-(methylsulfonylmethyl)-6-morpholin-4-yl-pyrimidin-2-yl]phenyl]propanamide], the IC50 stood at 4990 nM.
Take `CS(=O)(=O)Cc1cc(N2CCOCC2)nc(-c2ccc(NC(=O)CCc3c[nH]cn3)cc2)n1` [Example 5ah, 3-(1H-imidazol-4-yl)-N-[4[4-(methylsulfonylmethyl)-6-morpholin-4-yl-pyrimidin-2-yl]phenyl]propanamide]: the IC50 is 2750 nM.
`CC(=O)NCC(=O)Nc1ccc(-c2nc(CS(C)(=O)=O)cc(N3CCOCC3)n2)cc1` [Example 5c, N-[[4-[4-(methylsulfonylmethyl)-6-morpholin-4-yl-pyrimidin-2-yl]phenyl]carbamoylmethyl] acetamide]: the half-maximal inhibitory concentration (IC50) was 1370 nM.
The figure for `CS(=O)(=O)Cc1cc(N2CCOCC2)nc(-c2ccc(NC(=O)Cc3ncccn3)cc2)n1` [Example 5ak, N-[4-[4-(methylsulfonylmethyl)-6-morpholin-4-yl-pyrimidin-2-yl]phenyl]-2-pyrimidin-2-yl-acetamide] is 7790 nM; for `CS(=O)(=O)Cc1cc(N2CCOCC2)nc(-c2ccc(NC(=O)C3=COCCC3)cc2)n1` [Example 5ag, N-[4-[4-(methylsulfonylmethyl)-6-morpholin-4-yl-pyrimidin-2-yl]phenyl]-5,6-dihydro-4H-pyran-3-carboxamide] it is 2760 nM.
The figure for `CS(=O)(=O)Cc1cc(N2CCOCC2)nc(-c2ccc(NC(=O)C(N)=O)cc2)n1` [Example 5s, N-[4-[4-(methylsulfonylmethyl)-6-morpholin-4-yl-pyrimidin-2-yl]phenyl]oxamide] is 2290 nM; for `C[C@H]1COCCN1c1cc(CS(C)(=O)=O)nc(-c2ccc(NC(=O)c3ccno3)cc2)n1` [Example 2, N-[4-[4-[(3S)-3-Methylmorpholin-4-yl]-6-(methylsulfonylmethyl)pyrimidin-2-yl]phenyl]-1,2-oxazole-5-carboxamide] it is 90.9 nM; for `COCCC(=O)Nc1ccc(-c2nc(CS(C)(=O)=O)cc(N3CCOCC3)n2)cc1` [Example 5k, 3-methoxy-N-[4-[4-(methylsulfonylmethyl)-6-morpholin-4-yl-pyrimidin-2-yl]phenyl]propanamide] it is 2080 nM.
In the case of `COCC(=O)Nc1ccc(-c2nc(CS(C)(=O)=O)cc(N3CCOCC3)n2)cc1` [Example 5j, 2-methoxy-N-[4-[4-(methylsulfonylmethyl)-6-morpholin-4-yl-pyrimidin-2-yl]phenyl]acetamide], the IC50 is 8270 nM.
The figure for `CC(C)CC(=O)Nc1ccc(-c2nc(CS(C)(=O)=O)cc(N3CCOCC3)n2)cc1` [Example 5h, 3-methyl-N-[4-[4-(methylsulfonylmethyl)-6-morpholin-4-yl-pyrimidin-2-yl]phenyl]butanamide] is 2580 nM; for `Cc1ccn(CC(=O)Nc2ccc(-c3nc(CS(C)(=O)=O)cc(N4CCOCC4)n3)cc2)n1` [Example 5an, 2-(3-methylpyrazol-1-yl)-N-[4-[4-(methylsulfonylmethyl)-6-morpholin-4-yl-pyrimidin-2-yl]phenyl]acetamide] it is 29700 nM; for `CS(=O)(=O)Cc1cc(N2CCOCC2)nc(-c2ccc(NC(=O)C3CCC(=O)N3)cc2)n1` (stereo not drawn) [Example 5t, N-[4-[4-(methylsulfonylmethyl)-6-morpholin-4-yl-pyrimidin-2-yl]phenyl]-5-oxo-pyrrolidine-2-carboxamide] it is 2860 nM.
